The target of one series is mGAT4 (Mus musculus (Mouse), UniProt P31650). Briefly: [3H]GABA uptake inhibition, mGAT4 in HEK293 cells. The class given is cell-based. Particulars: GABA reuptake. The method, then:
(§1) Exemplary compounds according to the invention were screened at the Ludwig-Maximilian University of Munich to determine the inhibitory ability towards four mouse GAT transporters (mGAT1-mGAT4). […] The biological material was stably transfected human embryonic kidney HEK293 cells, expressing genes to the appropriate transporters. The generated radioactivity was measured with a liquid scintillation counter. […] These determinations were made according to the procedure described in detail in A. Kragler, G. Höfner, K. T. Wanner, Novel parent structures for inhibitors of the murine GABA transporters mGAT3 and mGAT4, Eur. J. Pharmacol. 519 (2005) 43-47.

For a further series, the system named is Albino Swiss CD-1 mice. Briefly: Spontaneous motor activity test. Type of series: in vivo. Here is the method: The research was conducted at the Department of Pharmacodynamics, Faculty of Pharmacy, Jagiellonian University in Krakow. All procedures were approved by the 1st and 2nd Local Ethics Committee for Animal Experiments in Krakow (consent no. 53/2017 and 250/2019) and were performed in accordance with the applicable European Union regulation (86/609/EEC). Males of two different strains of domestic mice (Mus musculus) were used in the study: Albino Swiss CD-1 (body weight approx. 20-24 g, age approx. 6 weeks) and C57BL/6J mice (body weight approx. 18-22 g, age approx. 6 weeks). The CD-1 strain was used for the passive avoidance, spontaneous mobility and rotating rod tests, while the C57BL/6J mice were used for the Morris water maze and the Barnes' maze. The animals were kept in standard, appropriately sized cages, divided into groups with a maximum of 10 animals. […]
In this test, the effect of compound JT-3 on the spontaneous motor activity of mice was investigated. […] The apparatus recorded the number of horizontal and vertical movements during the 60-minute test. The mice were put into the actometer, the measurement lasted for 1 hour, during which the camera counted the number of times the light beams were crossed, i.e. motor activity. […]

The nature of series [1]: Pharmacokinetic parameters in plasma and brain of mice. The class given is in vivo. Here is the method: The research was carried out at the Department of Toxicology and Military Pharmacy, Faculty of Military Health Sciences in Hradec Kralove, Defense University in Brno in the Czech Republic, at the Biomedical Research Center and at the Department of Clinical Biochemistry of the University Hospital Hradec Kralove in the Czech Republic. All procedures were carried out under the supervision of the Ethics Committee of the Faculty of Military Health Sciences (No. 20/19; MO 215611/2019-684800). Male and female ICR-CD1 strain of domestic mice (Mus musculus) (body weight approx. 20-25 g) were used in the research. The animals were kept in standard, appropriately sized cages, divided into groups of a maximum of 8 animals. The animals in the test groups were administered the test compound intraperitoneally (doses in the acute toxicity study: 10, 20, 40 and 60 mg/kg, dose in the study of pharmacokinetic parameters 10 mg/kg). Control groups received 1% Tween 80.
After administration of compound JT-3 at the MTD dose (10 mg/kg), animals were subjected to deep terminal sedation at 0, 3, 5, 10, 20, 30, 45, 60, 90, 120, 240 and 360 minutes after dosing (six animals per time interval; n=6) and their blood was drawn by cardiac puncture into heparinized tubes. Samples were centrifuged (3000×g, 10 minutes, 10° C.). Plasma was stored at −80° C. until analyzed by HPLC. Blood in the cerebral vessels would interfere with the actual concentration levels in the brain tissue, therefore the animals were perfused transcardially with physiological saline (0.9% NaCl) for 5 minutes (10 mL/min). After perfusion, the skull was opened and the brain was carefully removed and stored at −80° C. until analyzed by HPLC.
Quantitative analyzes of JT-3 in plasma and brain were performed by HPLC. The method has been fully validated for plasma and partially validated for brain homogenate according to the EMA and FDA guidelines for the validation of bioanalytical methods [Research, C, Anonymous].

The next series has as its target mGAT1 (Mus musculus (Mouse), UniProt P31648). Briefly: [3H]GABA uptake inhibition, mGAT1 in HEK293 cells. Type of series: cell-based. Particulars: GABA reuptake. The method, then:
as §1

Usually Tmax stands for the time from dosing to the highest level. The Cmax is the highest concentration seen after dosing. As a reminder, the MRT is a mean duration of stay, worked out from the concentration-time curve.

mGAT4, sequence (P31650 whole entry): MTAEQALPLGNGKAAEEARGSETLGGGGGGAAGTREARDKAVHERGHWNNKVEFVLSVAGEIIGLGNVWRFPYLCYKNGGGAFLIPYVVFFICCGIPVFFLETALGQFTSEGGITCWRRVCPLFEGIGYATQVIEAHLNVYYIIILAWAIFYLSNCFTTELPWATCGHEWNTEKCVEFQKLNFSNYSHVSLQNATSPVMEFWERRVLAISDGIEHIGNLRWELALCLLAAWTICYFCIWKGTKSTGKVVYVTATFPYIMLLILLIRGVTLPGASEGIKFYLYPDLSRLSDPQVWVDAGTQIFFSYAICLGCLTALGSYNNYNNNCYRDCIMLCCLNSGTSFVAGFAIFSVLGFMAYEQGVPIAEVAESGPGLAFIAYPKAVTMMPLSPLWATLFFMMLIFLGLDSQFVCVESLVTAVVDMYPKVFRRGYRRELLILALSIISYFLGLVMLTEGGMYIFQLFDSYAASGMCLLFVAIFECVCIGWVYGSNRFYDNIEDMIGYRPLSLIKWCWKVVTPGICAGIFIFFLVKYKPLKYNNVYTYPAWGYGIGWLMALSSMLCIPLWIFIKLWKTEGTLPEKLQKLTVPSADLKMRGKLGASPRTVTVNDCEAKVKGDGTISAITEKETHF

Consider `O[C@H](CNCC1CC1)[C@H](Cc1ccccc1)NC1c2ccccc2-c2ccccc21` [JT-3, (2R,3S)-3-((9H-fluoren-9-yl)amino)-1-((cyclopropylmethyl)amino)-4-phenylbutan-2-ol], for which the “pIC50 (+/−SEM) mGAT4” value against mGAT4 was 5.11 +/− 0.02. Further, the “effect on spontaneous motor activity (number of movements in 60 min)” value with Albino Swiss CD-1 mice (10 mg/kg i.p.) is “Neither of these doses affected the motility of the animals”. Besides, in the series with Albino Swiss CD-1 mice (30 mg/kg i.p.), the “effect on spontaneous motor activity (number of movements in 60 min)” value is “Neither of these doses affected the motility of the animals”. Moreover, in series [1] (both, ICR-CD1, mouse, in vivo, ip, 10 mg/kg), the Vz was found to be 40.93 ± 4.95 L/kg. Also, the Tmax in series [1] (brain, mice, 10 mg/kg i.p.) amounted to 0.9167 ± 0.113 h. Further, the “time of maximum concentration after administration” value in series [1] (mice, 10 mg/kg i.p.) amounted to 60 min. Besides, the “penetration into the brain” value in series [1] (mice, 10 mg/kg i.p., higher concentrations in the CNS than in plasma) was “Very good penetration”. Also, the Half-life in series [1] (plasma, elimination phase, mice, 10 mg/kg i.p.) was 2.6907 ± 0.2375 h. Also, in series [1] (plasma, mice, 10 mg/kg i.p.), the peak concentration (Cmax) is reported as 430.09 ± 57.94 ng/mL, the MRT was found to be 3.6183 ± 0.2942 h, the time to peak (Tmax) was determined as 0.3888 ± 0.0828 h and the “λz (terminal phase rate constant)” value was 0.0045 ± 0.0004 min⁻¹. The same molecule had a Cmax in series [1] (sexes, ICR-CD1, mouse, in vivo, ip, 10 mg/kg) of 833 ± 62.3 ng/g. Also, the “pIC50 (+/−SEM) mGAT1” value against mGAT1 is given as 4.96.

Source of the values: patent US12492163B2, “9H-fluorene derivatives or their pharmaceutically acceptable salts” (priority 2020, dated 2025).
